Consider eight molecules from BindingDB's records for doi:10.1021/jm00087a007 (Uppsala University, 1992).

Experiment [1] in a line: Compound was evaluated for its binding affinity against muscarinic acetylcholine receptor M2 in guinea pig heart using (-)-[3H]-QNB as radioligand.
A short description of experiment [2]: Compound was evaluated for its binding affinity against Muscarinic acetylcholine receptor M1 in guinea pig cerebral cortex using (-)-[3H]-QNB as radioligand.
A short description of experiment [3]: Compound was evaluated for its binding affinity against muscarinic acetylcholine receptor M2 in guinea pig heart using (-)-[3H]-QNB as radioligand. The source holds these as a separate data set.
Experiment [4] is described as follows: Compound was evaluated for its binding affinity against Muscarinic acetylcholine receptor M1 in guinea pig cerebral cortex using (-)-[3H]-QNB as radioligand. The source holds these as a separate data set.
The nature of experiment [5]: Compound was evaluated for its binding affinity against muscarinic acetylcholine receptor M2 in guinea pig heart using (-)-[3H]-QNB as radioligand. The source holds these as a separate data set.

With `C[C@@H]1OCC2(CN3CCC2CC3)O1` (stereo partly drawn) [(2'S)-2'-methylspiro[4-azabicyclo[2.2.2]octane-2,4'-[1,3]dioxolane]], the results for the Ki in experiment [1] and in experiment [2] were over 21 µM and 6.3 µM, respectively.

In the case of `C[C@H]1OCC2(CN3CCC2CC3)O1` (stereo partly drawn) [(2'S)-2'-methylspiro[4-azabicyclo[2.2.2]octane-2,4'-[1,3]dioxolane]], the Ki came to 9.7 µM in experiment [3] and 2.9 µM in experiment [2].

For the molecule `C1OCC2(CN3CCC2CC3)O1` (stereo unspecified), the Ki in experiment [3] stood at 50 µM; in experiment [2], 19 µM.

With `C[C@@H]1CC2(CO1)CN1CCC2CC1` (stereo partly specified), the Ki was over 20 µM in experiment [1] and 6.3 µM in experiment [2].

For `C[C@H]1CC2(CO1)CN1CCC2CC1` (stereo partly specified), the Ki in experiment [4] is 6.5 µM; in experiment [5] it was over 20 µM.

As for `C[C@@H]1CCC2(CN3CCC2CC3)O1` (stereo partly specified), the values for the Ki in experiment [4] and in experiment [5] were 20 µM and over 25 µM, respectively.

`C[C@H]1CCC2(CN3CCC2CC3)O1` (stereo partly specified): the Ki in experiment [1] and in experiment [2] was 15 µM throughout.

`CC1(C)OCC2(CN3CCC2CC3)O1` (stereo unspecified): the results for the Ki in experiment [3] and in experiment [2] were 30 µM and 9.3 µM, respectively.
